Assay results from patent publication US8563490B2, “Mild to the skin, foaming detergent composition” (Conopco, Inc., priority 2010, dated 2013).

Biological target: a-Chymotrypsin from bovine pancreas (Bos taurus, UniProt P00766)
Method: The basis of the mildness assay is the enzymatic activity of Chymotrypsin on a chromogenic substrate. Surfactant mildness is assessed by the effect of a surfactant on the enzyme protein. A harsh surfactant will degrade Chymotrypsin, leading to a lower optical density reading in the reaction well. The enzyme used for this assay is a-Chymotrypsin from bovine pancreas. The enzyme used is the chromogenic substrate for Chymotrypsin, N-Succinyl-Ala-Ala-Pro-Phe-pNA.
The basis of the surfactant protein mildness detecting assay used was the enzymatic activity of Chymotrypsin on a chromogenic substrate. A harsh surfactant degrades Chymotrypsin, leading to a lower absorbance reading. Any reading greater than 0.8% is taken to be a pass for mildness.
For the skin protein protection assay, 70 μl stock buffer solution (33 mM of Tris pH8.0, 180 mM of NaCl, 1 mM of CaCl2), 10 μl substrate stock solution (Ala-Ala-Pro-Phe-pNA; 4 mg/ml) and 20 μl enzyme (α-Chyotrypsin; 10 ng per well) were added to the wells of a 96-well plate together with 100 ul of the formulations pre-diluted 1:10 in water. Reaction mixes were incubated for 45 minutes before colorimetric measurements were taken at 405 nm by a SpectraMax plate reader.

## Saponin extract from Zizyphus joazero [hh]
  Mildness Lsmean (least squares mean of Absorbance values): 0.36
